Test results from US10774281B2, “Use of a particular carboxylic amino acid in order to limit the formation and/or agglomeration of gas hydrates” (Arkema France, priority 2015, dated 2020).

What was measured:
[1] = Biodegradability in marine medium, OCDE test 306; conditions: in words
Method: (§1) According to OCDE test 306 (marine medium), the composition of the invention (B1), comprising a compound of formula (I), has a biodegradability of 70%, i.e. greater than 60%. […] Its Log Pow measured according to OCDE 117 by HPLC is 2.93<3. Its Algal ecotoxicity is 2 mg·L^−1.

[2] = Bioaccumulation, Log Pow according to OCDE 117 by HPLC; format: physicochemical
Method: as §1

Substance | Biodegradability classification [1] | Bioaccumulation, in words [2]
di-tallow-hydrogenodimethylammonium chloride [Noramium® M2SH] | not biodegradable | bioaccumulable
dicocoyldimethylammonium chloride [Noramium® M2C] | not biodegradable | bioaccumulable
